Reference: patent US20240409585A1, “MACROCYCLIC IMMUNOMODULATORS” (priority 2021, published 2024)
Bridge positions count the residues as written; N and C are the ends. Square brackets hold non-standard residues; d marks the D form. Peptide text beside a SMILES is read from it. * marks the point of attachment. ξ: configuration not given here. Ala(indol-4-yl) = N[C@@H](Cc1cccc2[nH]ccc12)C(=O)O; Phe(4-COOH) = N[C@@H](Cc1ccc(C(=O)O)cc1)C(=O)O; Bip = N[C@@H](Cc1ccc(-c2ccccc2)cc1)C(=O)O; Phe(3-Me) = Cc1cccc(C[C@H](N)C(=O)O)c1; Val(3-OH) = CC(C)(O)[C@H](N)C(=O)O; 2Thi = N[C@@H](Cc1cccs1)C(=O)O; Cha = N[C@@H](CC1CCCCC1)C(=O)O; Ile(3ξ) = CCC(C)[C@H](N)C(=O)O; Thr(3ξ) = CC(O)[C@H](N)C(=O)O; Carboxymethyl = O=C(O)C*; NMeA = CN[C@@H](C)C(=O)O; dDap = NC[C@@H](N)C(=O)O; Dab = NCC[C@H](N)C(=O)O

Target: T1, PE-labeled human PD-L1-Ig binding to Jurkat cell line over-expressing human PD-1 (Jurkat-PD-1) (Homo sapiens, UniProt Q15116)
T1 construct: expressed in transfected cells; host or cells: Jurkat
Assay: Jurkat-PD-1 Cell Binding High-Content Screening Assay (CBA): Method 1
Settings: Jurkat-hPD-1 cells, PE-labeled PD-L1-Ig 20 nM final; read-out: Jurkat HPDL1 PD1 IC50 (uM) (Method 1)

T1 sequence (Q15116 25-288): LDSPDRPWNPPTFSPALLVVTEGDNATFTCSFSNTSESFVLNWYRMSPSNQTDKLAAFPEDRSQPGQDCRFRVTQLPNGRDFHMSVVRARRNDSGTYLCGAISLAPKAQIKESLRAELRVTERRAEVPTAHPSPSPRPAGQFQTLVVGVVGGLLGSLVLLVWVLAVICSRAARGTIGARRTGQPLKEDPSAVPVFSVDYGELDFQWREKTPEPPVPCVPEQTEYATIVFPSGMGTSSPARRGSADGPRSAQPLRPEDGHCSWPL

Going from `CC(C)C[C@@H]1NC(=O)[C@H](CCN)NC(=O)[C@@H](CC(C)C)NC(=O)[C@H](C)N(C)C(=O)[C@H](CCC(=O)O)NC(=O)[C@H](Cc2ccc(-c3ccccc3)cc2)NC(=O)[C@H](C(C)C)NC(=O)[C@H](Cc2c[nH]c3ccccc23)NC(=O)[C@H](CC(=O)O)NC(=O)[C@H](Cc2ccc(C(=O)O)cc2)NC(=O)[C@H](CC(N)=O)NC(=O)CSC[C@@H](C(=O)N[C@@H](C)C(N)=O)NC(=O)[C@H]([C@@H](C)O)NC(=O)[C@H](C(C)C)NC1=O` [Compound 1389] ({CH2CO}-N[Phe(4-COOH)]DWV[Bip]E[NMeA][dL][Dab]LVTCA-NH2; thioether N-14) to `CC(C)C[C@@H]1NC(=O)[C@H](Cc2c[nH]c3ccccc23)NC(=O)[C@H](CC(=O)O)NC(=O)[C@H](Cc2ccc(O)cc2)NC(=O)[C@H](Cc2ccccc2)NC(=O)CSC[C@@H](C(=O)N[C@@H](C)C(N)=O)NC(=O)[C@H](CO)NC(=O)[C@H](C(C)C)NC(=O)[C@H](CC(C)C)NC(=O)[C@H](CC(N)=O)NC(=O)[C@@H](CN)NC(=O)[C@H](C)N(C)C(=O)[C@H](C(C)C)NC(=O)[C@H](Cc2ccc(-c3ccccc3)cc2)NC1=O` [Compound 1787] ({CH2CO}-FYDWL[Bip]V[NMeA][dDap]NLVSCA-NH2; thioether N-14), the IC50 rises from 0.03 µM to 0.1 µM (3.3-fold).

Compared with `CC[C@@H](C)[C@H]1NC(=O)[C@H](C)N(C)C(=O)[C@H](CCCNC(=N)N)NC(=O)[C@H](Cc2ccc(-c3ccccc3)cc2)NC(=O)[C@H](C(C)C)NC(=O)[C@H](Cc2c[nH]c3ccccc23)NC(=O)[C@H](CC(=O)O)NC(=O)[C@H](Cc2ccc(O)cc2)NC(=O)[C@H](Cc2ccccc2)NC(=O)CSC[C@@H](C(=O)N[C@@H](C)C(N)=O)NC(=O)[C@H]([C@@H](C)O)NC(=O)[C@H](C(C)C)NC(=O)[C@H](CC(C)C)NC(=O)[C@H](CCCNC(=N)N)NC1=O` [Compound 1066] ({CH2CO}-FYDWV[Bip]R[NMeA][dI]RLVTCA-NH2; thioether N-14), `CCC(C)[C@@H]1NC(=O)[C@H](Cc2ccc(-c3ccccc3)cc2)NC(=O)[C@H](C(C)C)NC(=O)[C@H](Cc2c[nH]c3ccccc23)NC(=O)[C@H](CC(=O)O)NC(=O)[C@H](Cc2ccc(O)cc2)NC(=O)[C@H](Cc2cccc3[nH]ccc23)NC(=O)CSC[C@@H](C(=O)N[C@@H](C)C(N)=O)NC(=O)[C@H](C(C)O)NC(=O)[C@H](C(C)C)NC(=O)[C@H](CC2CCCCC2)NC(=O)[C@H](CCN)NC(=O)[C@@H](CC(C)C)NC(=O)[C@H](C)N(C)C1=O` (stereo partly drawn) [Compound 2053] ({CH2CO}-[Ala(indol-4-yl)]YDWV[Bip][Ile(3ξ)][NMeA][dL][Dab][Cha]V[Thr(3ξ)]CA-NH2; thioether N-14) is 26-fold lower in IC50: 0.79 µM for the first, 0.03 µM for the second. The second is the more potent here.

`CCC(C)[C@@H]1NC(=O)[C@H](Cc2ccc(-c3ccccc3)cc2)NC(=O)[C@H](C(C)C)NC(=O)[C@H](Cc2c[nH]c3ccccc23)NC(=O)[C@H](CC(=O)O)NC(=O)[C@H](Cc2ccc(O)cc2)NC(=O)[C@H](Cc2cccs2)NC(=O)CSC[C@@H](C(=O)N2CCC[C@H]2C(N)=O)NC(=O)[C@H](C(C)O)NC(=O)[C@H](C(C)(C)O)NC(=O)[C@H](CC2CCCCC2)NC(=O)[C@H](CC(N)=O)NC(=O)[C@@H](CC(C)C)NC(=O)[C@H](C)N(C)C1=O` (stereo partly drawn) [Compound 2174] ({CH2CO}-[2Thi]YDWV[Bip][Ile(3ξ)][NMeA][dL]N[Cha][Val(3-OH)][Thr(3ξ)]CP-NH2; thioether N-14) and `Cc1cccc(C[C@@H]2NC(=O)[C@H](CC(=O)O)NC(=O)[C@H](Cc3ccc(OCC(=O)O)cc3)NC(=O)[C@H]([C@@H](C)O)NC(=O)CSC[C@@H](C(N)=O)NC(=O)[C@H](CC(=O)O)NC(=O)[C@H](C(C)C)NC(=O)[C@H](CC3CCCCC3)NC(=O)[C@H](CC(N)=O)NC(=O)[C@@H](CC(C)C)NC(=O)[C@H](C)N(C)C(=O)[C@H](Cc3ccc(OCC(=O)O)cc3)NC(=O)[C@H](Cc3ccc(-c4ccccc4)cc3)NC(=O)[C@H](Cc3ccc(OCC(=O)O)cc3)NC2=O)c1` [Compound 1676] ({CH2CO}-TY(Carboxymethyl)D[Phe(3-Me)]Y(Carboxymethyl)[Bip]Y(Carboxymethyl)[NMeA][dL]N[Cha]VDC-NH2; thioether N-14) are within 1.5-fold of each other in IC50: 0.31 µM for the first, 0.24 µM for the second.
